These results are taken from US10336739B2, “4-hydroxy-3-(heteroaryl)pyridine-2-one APJ agonists” (BRISTOL-MYERS SQUIBB COMPANY, priority 2015, dated 2019).

human APJ receptor, sequence (P35414 whole entry): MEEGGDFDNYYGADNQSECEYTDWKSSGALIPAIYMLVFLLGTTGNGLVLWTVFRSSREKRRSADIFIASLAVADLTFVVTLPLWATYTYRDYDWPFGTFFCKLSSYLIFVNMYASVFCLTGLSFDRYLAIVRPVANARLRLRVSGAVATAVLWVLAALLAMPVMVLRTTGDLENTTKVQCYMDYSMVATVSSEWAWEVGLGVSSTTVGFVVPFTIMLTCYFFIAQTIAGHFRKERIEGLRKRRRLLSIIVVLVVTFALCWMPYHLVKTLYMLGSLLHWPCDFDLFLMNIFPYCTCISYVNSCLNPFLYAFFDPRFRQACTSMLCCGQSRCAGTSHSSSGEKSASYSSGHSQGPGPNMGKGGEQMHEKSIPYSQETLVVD

One test addresses human APJ receptor (Homo sapiens (Human), UniProt P35414). The test is described as follows: Intracellular cAMP accumulation assay (APJ hcAMP, HTRF). The class given is cell-based. The conditions noted are these: HEK293 cells stably expressing human APJ receptor; inhibition of forskolin-mediated cAMP production; read-out: Human APJ cAMP EC50 Potency range. In outline:
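cAMP inhibition was quantified by HTRF against a cAMP standard curve, with EC50 fitted to a variable-slope sigmoidal curve. Compounds acted on 5,000 APJ-stable HEK293 cells for 30 minutes at room temperature alongside 2 μM forskolin and […] IBMX. Detection reagents were incubated 60 min.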
On the technique in general: Changes in cAMP serve as a functional read-out for many G protein-coupled receptors.
Turning to `CCCCc1nc(O)c(-c2nnc(Cc3nnc(-c4ccc(Cl)cc4)o3)o2)c(O)c1-c1c(OC)cccc1OC` [Example 205, 6-butyl-3-(5-{[5-(4-chlorophenyl)-1,3,4-oxadiazol-2-yl]methyl}-1,3,4-oxadiazol-2-yl)-5-(2,6-dimethoxyphenyl)pyridine-2,4-diol], the EC50 lay in the range of 10 to 100 nM.

For the compound `CCOCc1nc(O)c(-c2nnc(Cn3ccccc3=O)o2)c(O)c1-c1c(OC)cc(F)cc1OC` [Example 212, 1-({5-[6-(ethoxymethyl)-5-(4-fluoro-2,6-dimethoxyphenyl)-2,4-dihydroxypyridin-3-yl]-1,3,4-oxadiazol-2-yl}methyl)-1,2-dihydropyridin-2-one], the EC50 fell in the range of 10 to 100 nM.

For `CCOCc1nc(O)c(-c2nnc(Cc3ccc(Cl)cc3)o2)c(O)c1-c1c(OC)cncc1OC` [Example 217, 3-{5-[(4-chlorophenyl)methyl]-1,3,4-oxadiazol-2-yl}-5-(3,5-dimethoxypyridin-4-yl)-6-(ethoxymethyl)pyridine-2,4-diol], the EC50 is 10 to 100 nM.

Take `CCCCc1nc(O)c(-c2nnc(Cc3noc4ccccc34)o2)c(O)c1-c1c(C)cccc1C` [Example 224, 3-[5-(1,2-benzoxazol-3-ylmethyl)-1,3,4-oxadiazol-2-yl]-6-butyl-5-(2,6-dimethylphenyl)pyridine-2,4-diol]: the EC50 fell in the range of 0.01 to 10 nM.

In the case of `CCCCc1nc(O)c(-c2nnc(Cc3noc4cccnc34)o2)c(O)c1-c1c(OC)cccc1OC` [Example 227, 6-butyl-5-(2,6-dimethoxyphenyl)-3-(5-{[1,2]oxazolo[4,5-b]pyridin-3-ylmethyl}-1,3,4-oxadiazol-2-yl)pyridine-2,4-diol], the EC50 was in the range of 0.01 to 10 nM.

Turning to `CCOCc1nc(O)c(-c2nnc(Cc3ccc(Cl)cc3)o2)c(O)c1-c1c(O)cccc1O` [Example 229, 3-{5-[(4-chlorophenyl)methyl]-1,3,4-oxadiazol-2-yl}-5-(2,6-dihydroxyphenyl)-6-(ethoxymethyl)pyridine-2,4-diol], the half-maximal effective concentration (EC50) lay in the range of 10 to 100 nM.

The same test, now with this note: HEK293 cells stably expressing human APJ receptor; inhibition of forskolin-mediated cAMP production; read-out: hAPJ cAMP EC50 Potency range.
As to `CCCCc1nc(O)c(-c2nnc(CC(=O)NCC(F)(F)F)o2)c(O)c1-c1c(OC)cccc1OC` [Example 192, 2-{5-[6-butyl-5-(2,6-dimethoxyphenyl)-2,4-dihydroxypyridin-3-yl]-1,3,4-oxadiazol-2-yl}-N-(2,2,2-trifluoroethyl) acetamide], the EC50 was 0.01 to 10 nM.

As to `CCCCc1nc(O)c(-c2nnc(CC(=O)NCCOC)o2)c(O)c1-c1c(OC)cccc1OC` [Example 193, 2-{5-[6-butyl-5-(2,6-dimethoxyphenyl)-2,4-dihydroxypyridin-3-yl]-1,3,4-oxadiazol-2-yl}-N-(2-methoxyethyl) acetamide], the EC50 fell in the range of 10 to 100 nM.

For the compound `CCCCc1nc(O)c(-c2nnc(CC(=O)N3CCCC3)o2)c(O)c1-c1c(OC)cccc1OC` [Example 194, 2-{5-[6-butyl-5-(2,6-dimethoxyphenyl)-2,4-dihydroxypyridin-3-yl]-1,3,4-oxadiazol-2-yl}-1-(pyrrolidin-1-yl)ethan-1-one], the EC50 lay within 0.01 to 10 nM.

As for `CCCCc1nc(O)c(-c2nnc(CC(=O)N3CCCCC3)o2)c(O)c1-c1c(OC)cccc1OC` [Example 195, 2-{5-[6-butyl-5-(2,6-dimethoxyphenyl)-2,4-dihydroxypyridin-3-yl]-1,3,4-oxadiazol-2-yl}-1-(piperidin-1-yl)ethan-1-one], the EC50 lay in the range of 0.01 to 10 nM.

Take `CCCCc1nc(O)c(-c2nnc(CC(=O)N3CCOCC3)o2)c(O)c1-c1c(OC)cccc1OC` [Example 196, 2-{5-[6-butyl-5-(2,6-dimethoxyphenyl)-2,4-dihydroxypyridin-3-yl]-1,3,4-oxadiazol-2-yl}-1-(morpholin-4-yl)ethan-1-one]: the EC50 fell in the range of 0.01 to 10 nM.

Consider `CCCCNC(=O)Cc1nnc(-c2c(O)nc(CCCC)c(-c3c(OC)cccc3OC)c2O)o1` [Example 197, N-butyl-2-{5-[6-butyl-5-(2,6-dimethoxyphenyl)-2,4-dihydroxypyridin-3-yl]-1,3,4-oxadiazol-2-yl}acetamide], for which the EC50 was 0.01 to 10 nM.

In the case of `CCCCCNC(=O)Cc1nnc(-c2c(O)nc(CCCC)c(-c3c(OC)cccc3OC)c2O)o1` [Example 198, 2-{5-[6-butyl-5-(2,6-dimethoxyphenyl)-2,4-dihydroxypyridin-3-yl]-1,3,4-oxadiazol-2-yl}-N-pentylacetamide], the concentration giving a half-maximal response (EC50) is 10 to 100 nM.

For the compound `CCCCc1nc(O)c(-c2nnc(CC(=O)N3CC(F)C3)o2)c(O)c1-c1c(OC)cccc1OC` [Example 199, 2-{5-[6-butyl-5-(2,6-dimethoxyphenyl)-2,4-dihydroxypyridin-3-yl]-1,3,4-oxadiazol-2-yl}-1-(3-fluoroazetidin-1-yl)ethan-1-one], the EC50 lay in the range of 0.01 to 10 nM.

Take `CCCCc1nc(O)c(-c2nnc(CC(=O)N3CC(F)(F)C3)o2)c(O)c1-c1c(OC)cccc1OC` [Example 200, 2-{5-[6-butyl-5-(2,6-dimethoxyphenyl)-2,4-dihydroxypyridin-3-yl]-1,3,4-oxadiazol-2-yl}-1-(3,3-difluoroazetidin-1-yl)ethan-1-one]: the EC50 is 0.01 to 10 nM.

In the case of `CCCCc1nc(O)c(-c2nnc(CC(=O)Nc3nccs3)o2)c(O)c1-c1c(OC)cccc1OC` [Example 201, 2-{5-[6-butyl-5-(2,6-dimethoxyphenyl)-2,4-dihydroxypyridin-3-yl]-1,3,4-oxadiazol-2-yl}-N-(1,3-thiazol-2-yl)acetamide], the EC50 fell in the range of 0.01 to 10 nM.

Turning to `CCCCc1nc(O)c(-c2nc(Cc3ccc(Cl)cc3)no2)c(O)c1-c1c(OC)cccc1OC` [Example 203, 6-butyl-3-{3-[(4-chlorophenyl)methyl]-1,2,4-oxadiazol-5-yl}-5-(2,6-dimethoxyphenyl) pyridine-2,4-diol], the EC50 fell in the range of 10 to 100 nM.

With `CCCCc1nc(O)c(-c2nnc(Cc3nnc(-c4ccncc4)o3)o2)c(O)c1-c1c(OC)cccc1OC` [Example 206, 6-butyl-5-(2,6-dimethoxyphenyl)-3-(5-{[5-(pyridin-4-yl)-1,3,4-oxadiazol-2-yl]methyl}-1,3,4-oxadiazol-2-yl)pyridine-2,4-diol], the half-maximal effective concentration (EC50) fell in the range of 0.01 to 10 nM.

Turning to `CCCCc1nc(O)c(-c2nnc(Cc3nnc(-c4ccccn4)o3)o2)c(O)c1-c1c(OC)cccc1OC` [Example 207, 6-butyl-5-(2,6-dimethoxyphenyl)-3-(5-{[5-(pyridin-2-yl)-1,3,4-oxadiazol-2-yl]methyl}-1,3,4-oxadiazol-2-yl)pyridine-2,4-diol], the EC50 lay within 0.01 to 10 nM.

With `CCCCc1nc(O)c(-c2nnc(Cc3nnc(-c4ccccc4Cl)o3)o2)c(O)c1-c1c(OC)cccc1OC` [Example 208, 6-butyl-3-(5-{[5-(2-chlorophenyl)-1,3,4-oxadiazol-2-yl]methyl}-1,3,4-oxadiazol-2-yl)-5-(2,6-dimethoxyphenyl) pyridine-2,4-diol], the EC50 lay in the range of 0.01 to 10 nM.

Take `CCCCc1nc(O)c(-c2nnc(Cc3nnc(Cc4ccccc4)o3)o2)c(O)c1-c1c(OC)cccc1OC` [Example 209, 3-{5-[(5-benzyl-1,3,4-oxadiazol-2-yl)methyl]-1,3,4-oxadiazol-2-yl}-6-butyl-5-(2,6-dimethoxyphenyl) pyridine-2,4-diol]: the EC50 fell in the range of 0.01 to 10 nM.

As for `CCCCc1nc(O)c(-c2nnc(Cc3nnc(-c4cccc(Cl)c4)o3)o2)c(O)c1-c1c(OC)cccc1OC` [Example 210, 6-butyl-3-(5-{[5-(3-chlorophenyl)-1,3,4-oxadiazol-2-yl]methyl}-1,3,4-oxadiazol-2-yl)-5-(2,6-dimethoxyphenyl) pyridine-2,4-diol], the EC50 was 10 to 100 nM.

Take `CCCCc1nc(O)c(-c2nnc(Cc3nnc(-c4cccnc4)o3)o2)c(O)c1-c1c(OC)cccc1OC` [Example 211, 6-butyl-5-(2,6-dimethoxyphenyl)-3-(5-{[5-(pyridin-3-yl)-1,3,4-oxadiazol-2-yl]methyl}-1,3,4-oxadiazol-2-yl)pyridine-2,4-diol]: the EC50 fell in the range of 10 to 100 nM.

With `CCOCc1nc(O)c(-c2nnc(Cc3noc4ccccc34)o2)c(O)c1-c1c(OC)cc(F)cc1OC` [Example 213, 3-[5-(1,2-benzoxazol-3-ylmethyl)-1,3,4-oxadiazol-2-yl]-6-(ethoxymethyl)-5-(4-fluoro-2,6-dimethoxyphenyl) pyridine-2,4-diol], the EC50 was in the range of 0.01 to 10 nM.

Regarding `CCOCc1nc(O)c(-c2nnc(Cc3ccc(Cl)cc3)o2)c(O)c1-c1c(OC)cc(F)cc1OC` [Example 214, 3-{5-[(4-chlorophenyl)methyl]-1,3,4-oxadiazol-2-yl}-6-(ethoxymethyl)-5-(4-fluoro-2,6-dimethoxyphenyl) pyridine-2,4-diol], the EC50 lay within 0.01 to 10 nM.

For `CCOCc1nc(O)c(-c2nnc(CN3CCCC3=O)o2)c(O)c1-c1c(OC)cc(F)cc1OC` [Example 215, 1-({5-[6-(ethoxymethyl)-5-(4-fluoro-2,6-dimethoxyphenyl)-2,4-dihydroxypyridin-3-yl]-1,3,4-oxadiazol-2-yl}methyl) pyrrolidin-2-one], the EC50 fell in the range of 10 to 100 nM.

With `CCOCc1nc(O)c(-c2nnc(Cc3ccc(Cl)nc3)o2)c(O)c1-c1c(OC)cc(F)cc1OC` [Example 216, 3-{5-[(6-chloropyridin-3-yl)methyl]-1,3,4-oxadiazol-2-yl}-6-(ethoxymethyl)-5-(4-fluoro-2,6-dimethoxyphenyl) pyridine-2,4-diol], the EC50 lay within 0.01 to 10 nM.

Regarding `CCCCc1nc(O)c(-c2nnc(Cc3noc4ccccc34)o2)c(O)c1-c1c(C)cc(C)cc1C` [Example 225, 3-[5-(1,2-benzoxazol-3-ylmethyl)-1,3,4-oxadiazol-2-yl]-6-butyl-5-(2,4,6-trimethylphenyl) pyridine-2,4-diol], the EC50 fell in the range of 10 to 100 nM.

With `CCCCc1nc(O)c(-c2nnc(Cc3noc4ccccc34)o2)c(O)c1-c1c(CC)cccc1CC` [Example 226, 3-[5-(1,2-benzoxazol-3-ylmethyl)-1,3,4-oxadiazol-2-yl]-6-butyl-5-(2,6-diethylphenyl) pyridine-2,4-diol], the EC50 fell in the range of 0.01 to 10 nM.

On to `CCOCc1nc(O)c(-c2nnc(Cc3noc4cccnc34)o2)c(O)c1-c1c(OC)cccc1OC` [Example 228, 5-(2,6-dimethoxyphenyl)-6-(ethoxymethyl)-3-(5-{[1,2]oxazolo[4,5-b]pyridin-3-ylmethyl}-1,3,4-oxadiazol-2-yl)pyridine-2,4-diol], for which the EC50 is 0.01 to 10 nM.

The EC50 is the midpoint of the concentration-response curve.
